Reference: patent US12606544B2, “JAK1 selective kinase inhibitor” (DIZAL (JIANGSU) PHARMACEUTICAL CO., LTD., priority 2019, dated 2026)
Where two headings read alike, the source gives them in different places.

Tests used:
[1] = molecular target: T1, JAK1 (Homo sapiens, UniProt P23458); test: Lance Ultra Kinase Assay, recombinant JAK1; type: biochemical; conditions: 5 mM ATP
T1 construct: purchased Carna Biosciences
Method in brief: (§1)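 Each recombinant kinase preincubated with or without compound 15 min at room temperature, then reaction started with 5 mM ATP and substrate peptide for 60 min. Stopped with EDTA-containing detection mix; TR-FRET read at ex 320 nm, 665/615 nm emission ratio taken as kinase activity.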

[2] = molecular target: T2, JAK2 (Homo sapiens, UniProt O60674); test: Lance Ultra Kinase Assay, recombinant JAK2; type: biochemical; conditions: 5 mM ATP
T2 construct: purchased Carna Biosciences
Method in brief: as §1

[3] = molecular target: T3, JAK3 (Homo sapiens, UniProt P52333); test: Lance Ultra Kinase Assay, recombinant JAK3; type: biochemical; conditions: 5 mM ATP
T3 construct: purchased Carna Biosciences
T3 sequence (P52333 1-1124): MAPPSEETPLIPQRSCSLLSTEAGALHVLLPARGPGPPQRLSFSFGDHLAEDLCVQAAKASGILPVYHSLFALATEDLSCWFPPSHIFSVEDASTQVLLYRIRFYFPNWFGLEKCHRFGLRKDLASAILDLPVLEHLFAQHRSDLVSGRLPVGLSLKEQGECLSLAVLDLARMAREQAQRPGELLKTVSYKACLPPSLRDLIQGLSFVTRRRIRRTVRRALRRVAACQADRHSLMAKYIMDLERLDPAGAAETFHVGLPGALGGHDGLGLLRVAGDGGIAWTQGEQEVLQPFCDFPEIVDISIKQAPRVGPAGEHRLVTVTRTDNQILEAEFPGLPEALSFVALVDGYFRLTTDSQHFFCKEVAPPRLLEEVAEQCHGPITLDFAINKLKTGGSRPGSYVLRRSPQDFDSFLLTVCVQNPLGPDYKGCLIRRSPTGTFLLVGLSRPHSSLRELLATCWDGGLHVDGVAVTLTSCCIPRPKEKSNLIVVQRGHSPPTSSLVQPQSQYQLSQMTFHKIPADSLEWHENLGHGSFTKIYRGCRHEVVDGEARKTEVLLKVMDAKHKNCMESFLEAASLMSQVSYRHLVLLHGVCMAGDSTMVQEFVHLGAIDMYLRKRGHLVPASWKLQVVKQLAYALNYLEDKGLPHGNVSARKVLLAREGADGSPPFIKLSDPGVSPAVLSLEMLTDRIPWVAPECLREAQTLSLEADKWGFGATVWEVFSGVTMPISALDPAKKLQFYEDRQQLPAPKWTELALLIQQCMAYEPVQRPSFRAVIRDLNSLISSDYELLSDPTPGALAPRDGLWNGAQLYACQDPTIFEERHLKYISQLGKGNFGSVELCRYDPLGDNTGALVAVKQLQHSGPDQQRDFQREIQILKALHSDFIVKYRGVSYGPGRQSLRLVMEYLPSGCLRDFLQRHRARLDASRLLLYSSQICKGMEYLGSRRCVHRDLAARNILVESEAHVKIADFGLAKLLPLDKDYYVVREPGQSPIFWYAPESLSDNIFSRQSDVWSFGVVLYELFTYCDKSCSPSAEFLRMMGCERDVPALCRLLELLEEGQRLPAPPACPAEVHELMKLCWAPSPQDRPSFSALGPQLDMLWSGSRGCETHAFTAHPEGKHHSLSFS
Method in brief: as §1

[4] = molecular target: T4, TYK2 (Homo sapiens, UniProt P29597); test: Lance Ultra Kinase Assay, recombinant TYK2; type: biochemical; conditions: 5 mM ATP
T4 construct: purchased Carna Biosciences
Method in brief: as §1

[5] = tested on: phosphorylation of STAT6; test: Cellular p-STAT6 assay, IL-13 stimulated THP-1 cells, flow cytometry; type: cell-based; conditions: IL-13 10 ng/ml, read-out: pSTAT6 IC50
Method in brief: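 THP-1 cells (2×10^5/well, RPMI1640 + 10% FBS) preincubated 60 min at room temperature with compound (1 μM to 0.3 nM), then stimulated 30 min with IL-13 at 10 ng/ml. Fixed, methanol-permeabilized cells stained with PE anti-pSTAT6 and read by flow cytometry; IC50 from dose-response curves.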

[6] = Metabolic stability in rat hepatocytes; type: in vitro ADME; conditions: 1 μM compound, male rat hepatocytes
Experimental: (§2) Rat hepatocytes in male gender and human liver microsome were obtained from commercial vendors (e.g., BioreclamationIVT) and stored at −150° C. prior to use.
For metabolic stability assay with rat heptatocytes, vials of cryopreserved hepatocytes or microsome were removed from storage, ensured that vials remain at cryogenic temperatures. 1 μM of each test compound (in Acetonitrile; 0.01% DMSO) was incubated with 250 μL of hepatocyte cells (1×10^6 cells/ml) in a 96 deep well plate. […] 40 μL of supernatant was diluted to 200 μL with pure water and analyzed using LC-MS/MS.
In vitro hepatocyte clearance was estimated based on determination of elimination half-life (T1/2) of compounds disappearance from their initial concentrations. Peak area ratios of each compound (test or control) to IS was calculated. Ln (% Control) versus Incubation Time (min) curve was plotted, and the slope of a linear fitting line was calculated. Drug elimination rate constant k (min−1), T1/2 (min), and in vitro intrinsic clearance CLint (μL/min/E6) was calculated according to the following equations: k=−slope T1/2=0.693/k CLint=k/Chep Where Chep (cells×μL^−1) is the cell concentration in the incubation system.

[7] = Metabolic stability in human liver microsome; type: in vitro ADME; conditions: 1 mg/mL microsomes, NADPH; for microsomal CLint at 1 μM: human, pooled human liver microsomes, pH 7.4, 1 μM compound
Experimental: as §2
For metabolic stability assay with human liver microsome, 1 μM of each test compound was incubated with 1 mg/mL of microsomes (Pooled HLM with 20 mg/ml protein cone) at 37° C. in 250 μL of buffer (100 mM phosphate buffer, pH-7.4) containing 1 mM NADPH solution. […] was quenched with 5 volumes chilled acetonitrile at different time points 0, 0.5, 5, 10, 15, 20 and 30 min in a fresh 96 well plate. The quench plate was centrifuged at 4000 rpm for 15 min. 40 μL of supernatant was diluted to 200 μL with pure water and analyzed using LC-MS/MS. […]

[8] = Homo sapiens, THP-1, THP-1 cells

T4 sequence (P29597 whole entry): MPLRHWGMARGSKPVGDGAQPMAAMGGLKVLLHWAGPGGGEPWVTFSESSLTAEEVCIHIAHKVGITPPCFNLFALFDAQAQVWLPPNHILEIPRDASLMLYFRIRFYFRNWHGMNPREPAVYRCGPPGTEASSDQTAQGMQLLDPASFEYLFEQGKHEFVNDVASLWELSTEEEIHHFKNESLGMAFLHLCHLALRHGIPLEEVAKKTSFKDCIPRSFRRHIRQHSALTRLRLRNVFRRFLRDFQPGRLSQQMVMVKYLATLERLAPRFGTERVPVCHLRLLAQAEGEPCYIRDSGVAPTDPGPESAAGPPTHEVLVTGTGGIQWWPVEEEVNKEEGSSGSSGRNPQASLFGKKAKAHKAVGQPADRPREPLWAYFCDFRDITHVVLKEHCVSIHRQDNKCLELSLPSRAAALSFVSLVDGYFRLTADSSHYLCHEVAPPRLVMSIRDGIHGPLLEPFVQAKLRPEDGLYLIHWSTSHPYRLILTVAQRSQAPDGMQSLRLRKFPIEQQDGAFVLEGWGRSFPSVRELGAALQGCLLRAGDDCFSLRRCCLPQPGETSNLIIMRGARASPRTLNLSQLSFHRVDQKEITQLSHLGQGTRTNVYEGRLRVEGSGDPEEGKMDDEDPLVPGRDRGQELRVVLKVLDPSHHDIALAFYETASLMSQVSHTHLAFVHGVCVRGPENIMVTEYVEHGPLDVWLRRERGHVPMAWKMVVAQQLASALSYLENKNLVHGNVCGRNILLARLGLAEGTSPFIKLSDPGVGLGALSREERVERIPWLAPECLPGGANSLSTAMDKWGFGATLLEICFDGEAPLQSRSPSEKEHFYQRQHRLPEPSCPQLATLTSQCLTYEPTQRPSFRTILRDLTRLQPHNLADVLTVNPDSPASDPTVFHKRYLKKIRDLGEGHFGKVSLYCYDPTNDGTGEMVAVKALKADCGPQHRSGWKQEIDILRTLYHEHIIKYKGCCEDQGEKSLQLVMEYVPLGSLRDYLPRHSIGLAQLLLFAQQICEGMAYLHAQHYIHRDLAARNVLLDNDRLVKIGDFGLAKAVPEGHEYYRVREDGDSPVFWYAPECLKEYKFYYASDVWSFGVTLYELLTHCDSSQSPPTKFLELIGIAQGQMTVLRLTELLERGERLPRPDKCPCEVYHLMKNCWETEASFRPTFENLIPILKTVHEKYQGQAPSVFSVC
T2 sequence (O60674 whole entry): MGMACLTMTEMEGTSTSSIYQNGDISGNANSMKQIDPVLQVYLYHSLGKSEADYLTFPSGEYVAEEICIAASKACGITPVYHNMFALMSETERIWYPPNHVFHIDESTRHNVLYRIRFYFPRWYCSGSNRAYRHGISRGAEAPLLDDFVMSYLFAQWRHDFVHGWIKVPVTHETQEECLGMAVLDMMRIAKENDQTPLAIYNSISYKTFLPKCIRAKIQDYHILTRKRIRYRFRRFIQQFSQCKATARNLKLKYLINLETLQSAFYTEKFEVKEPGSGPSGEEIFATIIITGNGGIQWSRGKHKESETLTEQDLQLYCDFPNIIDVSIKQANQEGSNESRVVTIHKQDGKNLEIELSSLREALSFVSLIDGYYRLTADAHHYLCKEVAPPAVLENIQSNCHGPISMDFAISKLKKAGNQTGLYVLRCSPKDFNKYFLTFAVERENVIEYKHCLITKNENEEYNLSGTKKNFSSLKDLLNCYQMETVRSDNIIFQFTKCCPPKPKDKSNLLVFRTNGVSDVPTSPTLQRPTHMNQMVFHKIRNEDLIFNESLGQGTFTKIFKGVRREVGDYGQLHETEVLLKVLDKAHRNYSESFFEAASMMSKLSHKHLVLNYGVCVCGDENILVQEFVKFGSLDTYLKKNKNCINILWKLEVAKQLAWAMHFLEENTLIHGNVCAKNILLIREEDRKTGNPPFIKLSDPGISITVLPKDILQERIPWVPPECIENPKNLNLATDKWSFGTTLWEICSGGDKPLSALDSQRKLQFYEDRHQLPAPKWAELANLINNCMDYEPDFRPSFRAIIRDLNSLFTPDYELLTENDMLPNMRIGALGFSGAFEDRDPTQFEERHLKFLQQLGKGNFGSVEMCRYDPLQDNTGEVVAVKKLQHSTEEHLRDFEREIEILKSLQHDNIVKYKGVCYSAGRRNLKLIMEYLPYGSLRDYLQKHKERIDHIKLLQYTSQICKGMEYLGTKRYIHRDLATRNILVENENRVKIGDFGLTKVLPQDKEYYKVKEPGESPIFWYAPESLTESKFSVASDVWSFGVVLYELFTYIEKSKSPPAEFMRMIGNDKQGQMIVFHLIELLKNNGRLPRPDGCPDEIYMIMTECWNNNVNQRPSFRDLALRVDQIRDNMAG
T1 sequence (P23458 whole entry): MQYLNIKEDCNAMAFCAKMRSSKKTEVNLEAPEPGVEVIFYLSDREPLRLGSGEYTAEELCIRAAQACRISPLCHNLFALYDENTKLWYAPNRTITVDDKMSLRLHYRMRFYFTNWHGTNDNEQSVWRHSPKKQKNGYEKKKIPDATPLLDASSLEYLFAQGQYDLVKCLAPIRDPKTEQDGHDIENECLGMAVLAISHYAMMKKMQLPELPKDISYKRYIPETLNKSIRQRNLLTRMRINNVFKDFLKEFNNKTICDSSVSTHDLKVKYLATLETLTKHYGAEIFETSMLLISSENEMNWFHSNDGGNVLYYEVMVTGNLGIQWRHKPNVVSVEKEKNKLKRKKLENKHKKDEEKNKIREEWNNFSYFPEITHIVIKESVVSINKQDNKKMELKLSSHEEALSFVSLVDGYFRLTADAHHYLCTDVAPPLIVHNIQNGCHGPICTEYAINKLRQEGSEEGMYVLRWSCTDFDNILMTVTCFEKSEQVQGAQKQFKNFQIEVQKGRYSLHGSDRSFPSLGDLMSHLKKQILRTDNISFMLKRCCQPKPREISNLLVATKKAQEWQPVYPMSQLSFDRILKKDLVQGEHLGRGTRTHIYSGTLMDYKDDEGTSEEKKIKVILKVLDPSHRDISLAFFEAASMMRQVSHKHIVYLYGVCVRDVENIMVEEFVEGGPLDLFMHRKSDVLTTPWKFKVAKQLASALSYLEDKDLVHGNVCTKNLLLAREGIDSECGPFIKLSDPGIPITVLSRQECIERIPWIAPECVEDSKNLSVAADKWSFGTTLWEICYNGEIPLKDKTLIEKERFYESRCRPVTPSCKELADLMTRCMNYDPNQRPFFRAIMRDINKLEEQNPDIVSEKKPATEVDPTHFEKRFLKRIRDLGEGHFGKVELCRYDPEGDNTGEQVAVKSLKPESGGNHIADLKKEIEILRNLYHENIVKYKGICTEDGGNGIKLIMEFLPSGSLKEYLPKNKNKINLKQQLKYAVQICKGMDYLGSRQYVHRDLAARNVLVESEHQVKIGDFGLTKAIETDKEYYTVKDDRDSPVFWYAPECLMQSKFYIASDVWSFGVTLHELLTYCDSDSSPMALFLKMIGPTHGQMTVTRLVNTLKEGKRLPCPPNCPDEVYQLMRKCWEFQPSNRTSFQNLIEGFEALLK

Compound | IC50 [1] [nM] | IC50 [2] [nM] | IC50 [3] [nM] | IC50 [4] [nM] | IC50 [5, 8] [nM] | Rat Hepatocyte CLint [6] [μL/min/10^6 cells] | microsomal CLint at 1 μM [7] [µL/min/mg] | IC50 ([5]; THP-1 cells) [nM] | Human liver microsome CLint ([7]; 1 μM compound) [µL/min/mg]
COC[C@H](C(=O)Nc1cccc2c(-c3nc(Nc4cnc(C(=O)OC)c(C)c4)ncc3F)c[nH]c12)N1CCN(C)CC1 [Example 57, methyl (R)-5-((5-fluoro-4-(7-(3-methoxy-2-(4-methylpiperazin-1-yl)propanamido)-1H-indol-3-yl)pyrimidin-2-yl)amino)-3-methylpicolinate] | 0.16 | 44 | > 10000 | 922 | 16 | 24.0 | > 300 |  | 
COC[C@H](C(=O)Nc1cccc2c(-c3nc(Nc4ccc(OCCO)nc4)ncc3F)c[nH]c12)N1CCN(C)CC1 [Example 16, (R)-N-(3-(5-fluoro-2-((6-(2-hydroxyethoxy)pyridin-3-yl)amino)pyrimidin-4-yl)-1H-indol-7-yl)-3-methoxy-2-(4-methylpiperazin-1-yl)propanamide] | 0.36 | 138 | > 10000 | 2000 | 7.4 | 42.1 | 3 |  | 
COC[C@H](C(=O)Nc1cccc2c(-c3nc(Nc4cnc(CCO)c(OC)c4)ncc3F)c[nH]c12)N1CCN(C)CC1 [Example 66, (R)-N-(3-(5-fluoro-2-((6-(2-hydroxyethyl)-5-methoxypyridin-3-yl)amino)pyrimidin-4-yl)-1H-indol-7-yl)-3-methoxy-2-(4-methylpiperazin-1-yl)propanamide] | 0.35 | 12 | > 10000 | 545 | 20.3 | 12.7 | 25 |  | 
COC[C@H](C(=O)Nc1cccc2c(-c3nc(Nc4cnn(C5CCOC5)c4)ncc3F)c[nH]c12)N1CCN(C)CC1 (single isomer, unassigned; isomer 1) [Example 30] | 0.15 | 95 | > 10000 | 1180 | 10.3 | 4.4 | 13.5 |  | 
COC[C@H](C(=O)Nc1cccc2c(-c3nc(Nc4ccc5c(c4)NC(=O)C5)ncc3F)c[nH]c12)N1CCN(C)CC1 [Example 37, (R)-N-(3-(5-fluoro-2-((2-oxoindolin-6-yl)amino)pyrimidin-4-yl)-1H-indol-7-yl)-3-methoxy-2-(4-methylpiperazin-1-yl)propanamide] | 0.21 | 68 | 4760 | 996 | 11.5 | 6.3 | 11.7 |  | 
COC[C@H](C(=O)Nc1cccc2c(-c3nc(Nc4cnn(C5CCOC5)c4)ncc3F)c[nH]c12)N1CCN(C)CC1 (single isomer, unassigned; isomer 2) [Example 33] | 0.14 | 110 | > 10000 | 2170 |  | 6.8 |  | 11.1 | 11.1

Further compounds by falling IC50 [1], results first:

IC50 [1] [nM] | IC50 [2] [nM] | IC50 [3] [nM] | IC50 [4] [nM] | IC50 [5, 8] [nM] | Rat Hepatocyte CLint [6] [μL/min/10^6 cells] | microsomal CLint at 1 μM [7] [µL/min/mg] | IC50 ([5]; THP-1 cells) [nM] | Human liver microsome CLint ([7]; 1 μM compound) [µL/min/mg] | Compound
131 | 2220 | > 10000 | > 10000 | 17.4 | >300 | 10.7 |  |  | COC[C@H](C(=O)Nc1cccc2c(-c3nc(Nc4ccc(CO)cn4)ncc3F)c[nH]c12)N1CCN(C)CC1 [Example 59, (R)-N-(3-(5-fluoro-2-((5-(hydroxymethyl)pyridin-2-yl)amino)pyrimidin-4-yl)-1H-indol-7-yl)-3-methoxy-2-(4-methylpiperazin-1-yl)propanamide]
0.25 | 158 | > 10000 | 1340 | 17.6 | 4.6 | 7 |  |  | COC[C@H](C(=O)Nc1cccc2c(-c3nc(Nc4ccc(CCO)nc4)ncc3F)c[nH]c12)N1CCN(C)CC1 [Example 60, (R)-N-(3-(5-fluoro-2-((6-(2-hydroxyethyl)pyridin-3-yl)amino)pyrimidin-4-yl)-1H-indol-7-yl)-3-methoxy-2-(4-methylpiperazin-1-yl)propanamide]
0.22 | 180 | > 10000 | 1660 | 15 | 17.4 | 27.9 |  |  | COC[C@H](C(=O)Nc1cccc2c(-c3nc(Nc4cnn(-c5ccccc5CO)c4)ncc3F)c[nH]c12)N1CCN(C)CC1 [Example 53, (R)-N-(3-(5-fluoro-2-((1-(2-(hydroxymethyl)phenyl)-1H-pyrazol-4-yl)amino)pyrimidin-4-yl)-1H-indol-7-yl)-3-methoxy-2-(4-methylpiperazin-1-yl)propanamide]
0.18 | 43 | 7740 | 1210 | 7.6 | 4.5 | 57.2 |  |  | COC[C@H](C(=O)Nc1cccc2c(-c3nc(Nc4ccc5c(C)n[nH]c5c4)ncc3F)c[nH]c12)N1CCN(C)CC1 [Example 17, (R)-N-(3-(5-fluoro-2-((3-methyl-1H-indazol-6-yl)amino)pyrimidin-4-yl)-1H-indol-7-yl)-3-methoxy-2-(4-methylpiperazin-1-yl)propanamide]
0.14 | 131 | > 10000 | 1290 | 13.4 | 2.7 | 45.2 |  |  | COC[C@H](C(=O)Nc1cccc2c(-c3nc(Nc4ccc5nc[nH]c5c4)ncc3F)c[nH]c12)N1CCN(C)CC1 [Example 45, (R)-N-(3-(2-((1H-benzo[d]imidazol-6-yl)amino)-5-fluoropyrimidin-4-yl)-1H-indol-7-yl)-3-methoxy-2-(4-methylpiperazin-1-yl)propanamide]
0.14 | 22 | > 10000 | 512 | 18.4 | 4.0 | 21.9 |  |  | COC[C@H](C(=O)Nc1cccc2c(-c3nc(Nc4ccc5c(c4)C(=O)OCC5)ncc3F)c[nH]c12)N1CCN(C)CC1 [Example 64, (R)-N-(3-(5-fluoro-2-((1-oxoisochroman-7-yl)amino)pyrimidin-4-yl)-1H-indol-7-yl)-3-methoxy-2-(4-methylpiperazin-1-yl)propanamide]
